As a reminder, the MIC is the smallest concentration in the dilution series that meets the test's criterion for growth inhibition. A lower MIC goes with a more susceptible organism.

Each structure is given as a SMILES string. In brackets after ≈: the same amount, converted by molar mass.

The values that follow come from ChEMBL document CHEMBL3817810, “Four new minor brominated indole related alkaloids with antibacterial activities from Laurencia similis” (2016).

What all share (type): functional
In one experiment the test system is Bacillus subtilis. The experiment in a line: Antibacterial activity against Bacillus subtilis by broth microdilution assay. In general terms: Dilution methods test growth across graded concentrations, often in twofold steps.
The test system of another experiment is Bacillus thuringiensis. The experiment in a line: Antibacterial activity against Bacillus thuringiensis by broth microdilution assay.
The next experiment has as its system Staphylococcus aureus. The experiment in a line: Antibacterial activity against Staphylococcus aureus by broth microdilution assay.
Experiment [1] deals with Agrobacterium tumefaciens. Nature of the experiment: Antibacterial activity against Agrobacterium tumefaciens by broth microdilution assay.
Experiment [2] relates to Pseudomonas amygdali pv. lachrymans. Nature of the experiment: Antibacterial activity against Pseudomonas lachrymans by broth microdilution assay.
The test system of another experiment is Ralstonia solanacearum. The experiment in a line: Antibacterial activity against Ralstonia solanacearum by broth microdilution assay.
For another experiment, the system named is Xanthomonas vesicatoria. The experiment in a line: Antibacterial activity against Xanthomonas vesicatoria by broth microdilution assay.

`Cc1cc(C)c2[nH]c3cc(Br)c(Br)cc3c2c1`: the MIC (in the experiment with Bacillus subtilis; against Bacillus thuringiensis; against Staphylococcus aureus; in experiment [1]; in experiment [2]; against Ralstonia solanacearum) was above 250 µg/mL throughout. The compound further gave a minimal inhibitory concentration (MIC) against Xanthomonas vesicatoria of 50 µg/mL (≈ 142 µM).

Turning to `COC(=O)Nc1cc(Br)c(Br)cc1C(=O)OC`, the minimal inhibitory concentration (MIC) (in the experiment with Bacillus subtilis; against Bacillus thuringiensis; with Staphylococcus aureus; in experiment [1]; in experiment [2]; with Ralstonia solanacearum) was above 250 µg/mL throughout. Besides, the MIC against Xanthomonas vesicatoria is above 250 µg/mL.

In the case of `CC(C)=C1C(=O)N(O)c2cc(Br)c(Br)cc21`, the minimum inhibitory concentration (MIC) in the experiment on Bacillus subtilis was 50 µg/mL (≈ 144 µM); against Bacillus thuringiensis, 50 µg/mL (≈ 144 µM); in the experiment with Staphylococcus aureus it was 12.5 µg/mL (≈ 36 µM); in experiment [1], 12.5 µg/mL (≈ 36 µM); in experiment [2] it was 50 µg/mL (≈ 144 µM); in the experiment with Ralstonia solanacearum, 50 µg/mL (≈ 144 µM). The same compound showed a minimal inhibitory concentration (MIC) against Xanthomonas vesicatoria above 250 µg/mL.

For `Oc1ccc(Cc2c(Br)[nH]c3cc(Br)c(Br)cc23)cc1Br`, the minimum inhibitory concentration (MIC) was found to be 8 µg/mL (≈ 14.8 µM) against Bacillus subtilis; 8 µg/mL (≈ 14.8 µM) with Bacillus thuringiensis; 2 µg/mL (≈ 3.71 µM) against Staphylococcus aureus; 4 µg/mL (≈ 7.42 µM) in experiment [1]; 8 µg/mL (≈ 14.8 µM) in experiment [2]; 4 µg/mL (≈ 7.42 µM) in the experiment on Ralstonia solanacearum. For the same compound, the minimum inhibitory concentration (MIC) in the experiment on Xanthomonas vesicatoria was 8 µg/mL (≈ 14.8 µM).

For the compound `CC1(C)S[C@@H]2[C@H](NC(=O)Cc3ccccc3)C(=O)N2[C@H]1C(=O)O` [PENICILLIN G], the minimal inhibitory concentration (MIC) was 0.125 µg/mL (≈ 0.374 µM) in the experiment with Bacillus subtilis; 64 µg/mL (≈ 191 µM) in the experiment with Bacillus thuringiensis; 0.25 µg/mL (≈ 0.748 µM) in the experiment on Staphylococcus aureus; 250 µg/mL (≈ 748 µM) in experiment [1]; 250 µg/mL (≈ 748 µM) in experiment [2]; 250 µg/mL (≈ 748 µM) in the experiment with Ralstonia solanacearum. The MIC in the experiment with Xanthomonas vesicatoria was found to be 250 µg/mL (≈ 748 µM).
